{"source": "patent US9422248B2", "about": "(University of Iowa Research Foundation, priority 2012, dated 2016)", "key": {"[1]": {"tested_on": "seizures", "assay": "anticonvulsant properties (model not stated)", "details": "in vivo"}, "[2]": {"tested_on": "6 Hz (32 mA) model", "details": "cited from earlier work; for anticonvulsant activity in the 6 Hz model: mouse 6 Hz (32 mA), previously shown; for ED50: 6 Hz model, earlier work"}, "[3]": {"tested_on": "maximal electroshock (MES) model", "details": "mouse; previously demonstrated; cited from earlier work"}, "[4]": {"tested_on": "scMET model (pentylenetetrazole, Metrazol)", "details": "mouse; previously demonstrated; cited from earlier work"}, "[5]": {"tested_on": "rotorod test", "assay": "Toxicity by the rotorod test", "type": "in vivo", "from_the_text": "All compounds (FIG. 1) were screened in three whole mouse models: the maximal electroshock model (MES), the scMET test (pentylenetetrazole, Metrazol), and the 6 Hz psychomotor seizure model of partial epilepsy (32 mA). Adult male CF No 1 albino mice (26-30 g) were used for the 6 Hz test and 18-25 g mice were used in the MES and scMet tests. The animals are housed, fed, and handled in a manner consistent with the recommendations in the National Council Publication, “Guide for the Care and Use of Laboratory Animals”. […] All compounds were administered ip in polyethylene glycol, 30%.\nThe 6 Hz test (also known as the minimal clonic seizure, or psychomotor test) involved delivering a corneal stimulus of 32 mA for 3 s. […] Seizures consist of a minimal clonic phase followed by stereotyped automatistic behaviors. Animals not showing such behaviors were considered protected. Toxicity was determined by the rotorod test. For this test, the animal is placed on a rotorod at 6 rpm following dosing. The animal is considered toxic if it falls off the rotorod three times in a 1 min period. The ED50, TD50 and confidence intervals were determined by probit analysis."}, "[6]": {"tested_on": "6 Hz (32 mA) model", "assay": "6 Hz (32 mA) psychomotor seizure model of partial epilepsy", "type": "in vivo, mouse", "details": "mouse, in vivo", "from_the_text": "(§1) All compounds (FIG. 1) were screened in three whole mouse models: the maximal electroshock model (MES), the scMET test (pentylenetetrazole, Metrazol), and the 6 Hz psychomotor seizure model of partial epilepsy (32 mA). Adult male CF No 1 albino mice (26-30 g) were used for the 6 Hz test and 18-25 g mice were used in the MES and scMet tests. The animals are housed, fed, and handled in a manner consistent with the recommendations in the National Council Publication, “Guide for the Care and Use of Laboratory Animals”. The animal studies were performed by the NINDS Anticonvulsant Screening Program under IACUC number 09-12014. All compounds were administered ip in polyethylene glycol, 30%.\nThe 6 Hz test (also known as the minimal clonic seizure, or psychomotor test) involved delivering a corneal stimulus of 32 mA for 3 s. This current elicits psychomotor seizures in 97% of untreated animals. Seizures consist of a minimal clonic phase followed by stereotyped automatistic behaviors. Animals not showing such behaviors were considered protected. Toxicity was determined by the rotorod test. For this test, the animal is placed on a rotorod at 6 rpm following dosing. The animal is considered toxic if it falls off the rotorod three times in a 1 min period. The ED50, TD50 and confidence intervals were determined by probit analysis."}, "[7]": {"tested_on": "scMET model (pentylenetetrazole, Metrazol)", "assay": "scMET test (subcutaneous Metrazol)", "type": "in vivo, mouse", "details": "for responders at 30 mg/kg / responders at 100 mg/kg / responders at 300 mg/kg: Mus musculus, scMET, read-out: number of animals protected/number of animals tested; for responders at 30 mg/kg: 30 mg/kg ip; for responders at 100 mg/kg: 100 mg/kg ip; for responders at 300 mg/kg: 300 mg/kg ip", "from_the_text": "as §1\n(§2) The MES model, which generates generalized tonic-clonic seizures, involved pretreating mice with experimental compound, and administering 60 Hz of alternating current (50 mA) for 2 s via corneal electrodes. Prior to current administration, the animal's corneas were treated topically with 1% tetracaine. Animals are considered protected if the hindlimb tonic extensor component is absent. The scMET test was done by pretreating mice with experimental compound and administering 85 mg/kg Metrazol into the loose folds of the skin in the midline of the neck. Eighty-five mg/kg Metrazol is the dose that causes seizures in 97% (CD97) of control animals."}, "[8]": {"tested_on": "maximal electroshock (MES) model", "assay": "maximal electroshock (MES) model", "type": "in vivo, mouse", "details": "for responders at 30 mg/kg / responders at 100 mg/kg / responders at 300 mg/kg: Mus musculus, MES; for responders at 30 mg/kg: 30 mg/kg ip; for responders at 30 mg/kg / responders at 300 mg/kg: read-out: number of animals protected/number of animals tested; for responders at 100 mg/kg: 100 mg/kg ip, read-out: number of animals protected/number of animals tested (converted); for responders at 300 mg/kg: 300 mg/kg ip", "from_the_text": "as §1, §2"}, "[9]": {"assay": "analgesic properties (test not described)"}}, "note": "Entries after “also recorded” stand apart in the source; their conditions may differ. Read-outs that look alike come from different tables or passages of the source.", "data": [{"smiles": "CC(C)c1nc(C(O)C(F)(F)F)ccc1O", "note": "(stereo not drawn) [Compound 20, 2-isopropyl-6-(2,2,2-trifluoro-1-hydroxyethyl)pyridin-3-ol]", "values": [{"measurement": "anticonvulsant properties", "setting": "[1]", "result": "anticonvulsant properties"}]}, {"smiles": "Cc1cc(C(O)C(F)(F)F)cc(C)c1O", "note": "(stereo not drawn) [DMPF]", "values": [{"measurement": "anticonvulsant activity in the 6 Hz model", "setting": "[2]", "result": "lack of activity"}]}, {"smiles": "CC(C)c1cc(C(O)C(F)(F)F)cc(C(C)C)c1O", "note": "(stereo not drawn) [MB003]", "values": [{"measurement": "protective effects in the MES model", "setting": "[3]", "result": "little to no protective effects"}, {"measurement": "ED50", "setting": "[2]", "result": 38.6, "unit": "mg/kg"}, {"measurement": "anticonvulsant activity in the 6 Hz model", "setting": "[2]", "result": "good anticonvulsant activity; also recorded: protective"}, {"measurement": "protective effects in the scMET model", "setting": "[4]", "result": "little to no protective effects"}]}, {"smiles": "CCC(C)c1cc(C(O)C(F)(F)F)cc(C(C)CC)c1O", "note": "(stereo not drawn) [MB050]", "values": [{"measurement": "ED50", "setting": "[2]", "result": 73, "unit": "mg/kg"}, {"measurement": "anticonvulsant activity in the 6 Hz model", "setting": "[2]", "result": "good anticonvulsant activity"}]}, {"smiles": "CCCc1cc(C(O)C(F)(F)F)ccc1O", "note": "(stereo not drawn) [RM1208, 2-n-Propyl-4-(2,2,2-trifluoro-1-hydroxy-ethyl)-phenol]", "values": [{"measurement": "Toxicity, animals/number of animals tested", "setting": "[5]; dose 100 mg/kg ip, 0.25 h", "result": "0/2"}, {"measurement": "Toxicity, animals/number of animals tested", "setting": "[5]; dose 100 mg/kg ip, 0.5 h", "result": "0/8"}, {"measurement": "Toxicity, animals/number of animals tested", "setting": "[5]; dose 100 mg/kg ip, 1 h", "result": "0/3"}, {"measurement": "Toxicity, animals/number of animals tested", "setting": "[5]; dose 100 mg/kg ip, 2 h", "result": "0/3"}, {"measurement": "Toxicity, animals/number of animals tested", "setting": "[5]; dose 100 mg/kg ip, 4 h", "result": "0/4"}, {"measurement": "Toxicity, animals/number of animals tested", "setting": "[5]; dose 100 mg/kg ip, 6 h", "result": "0/3"}, {"measurement": "Toxicity, animals/number of animals tested", "setting": "[5]; dose 30 ip, 0.5 h", "result": "0/4"}, {"measurement": "Toxicity, animals/number of animals tested", "setting": "[5]; dose 30 ip, 4 h", "result": "0/2"}, {"measurement": "Toxicity, animals/number of animals tested", "setting": "[5]; dose 300 ip, 0.5 h", "result": "3/4"}, {"measurement": "Toxicity, animals/number of animals tested", "setting": "[5]; dose 300 ip, 4 h", "result": "0/2"}, {"measurement": "antiseizure activity in the 6 Hz model", "setting": "[6]", "result": "not an active compound"}, {"measurement": "scMET protection, time points after dosing", "setting": "[7]; 300 mg/kg dose", "result": "at 0.5 h only"}, {"measurement": "responders at 30 mg/kg", "setting": "[7]; 0.5 h", "result": 0, "unit": "%"}, {"measurement": "responders at 30 mg/kg", "setting": "[7]; 4 h", "result": 0, "unit": "%"}, {"measurement": "responders at 100 mg/kg", "setting": "[7]; 0.5 h", "result": 0, "unit": "%"}, {"measurement": "responders at 100 mg/kg", "setting": "[7]; 4 h", "result": 0, "unit": "%"}, {"measurement": "responders at 300 mg/kg", "setting": "[7]; 0.5 h", "result": 100, "unit": "%"}, {"measurement": "responders at 300 mg/kg", "setting": "[7]; 4 h", "result": 0, "unit": "%"}, {"measurement": "MES protection", "setting": "[8]; 300 mg/kg dose", "result": "some protection"}, {"measurement": "MES protection, time points after dosing", "setting": "[8]; 300 mg/kg dose", "result": "protection at both 0.5 and 4 h"}, {"measurement": "responders at 30 mg/kg", "setting": "[8]; 0.25 h", "result": 0, "unit": "%"}, {"measurement": "responders at 30 mg/kg", "setting": "[8]; 0.5 h", "result": 0, "unit": "%"}, {"measurement": "responders at 30 mg/kg", "setting": "[8]; 1 h", "result": 0, "unit": "%"}, {"measurement": "responders at 30 mg/kg", "setting": "[8]; 2 h", "result": 0, "unit": "%"}, {"measurement": "responders at 30 mg/kg", "setting": "[8]; 4 h", "result": 0, "unit": "%"}, {"measurement": "responders at 30 mg/kg", "setting": "[8]; 6 h", "result": 0, "unit": "%"}, {"measurement": "responders at 100 mg/kg", "setting": "[8]; 0.5 h", "result": 0, "unit": "%"}, {"measurement": "responders at 100 mg/kg", "setting": "[8]; 4 h", "result": 0, "unit": "%"}, {"measurement": "responders at 300 mg/kg", "setting": "[8]; 0.5 h", "result": 100, "unit": "%"}, {"measurement": "responders at 300 mg/kg", "setting": "[8]; 4 h", "result": 100, "unit": "%"}]}, {"smiles": "CC(C)c1cc(C(O)C(F)(F)F)cc(Br)c1O", "note": "(stereo not drawn) [compound 10]", "values": [{"measurement": "analgesic properties", "setting": "[9]", "result": "analgesic properties"}]}]}
